Source: patent publication US7709475B2, “Selective inhibitors against Cdk4 and Cdk6 having aminothiazole skeleton” (Banyu Pharmaceutical Co., Ltd., priority 2004, dated 2010)

Key:
p35-Cdk5 = molecular target: T1, p35-Cdk5 (Homo sapiens, UniProt Q00535); experiment: Cdk5 inhibitory action: p35-Cdk5 kinase activity; assay type: biochemical; settings: p35-Cdk5, 50 μM ATP
T1 construct: purchased PanVera Corp; host or cells: insect cell
Procedure: For the measurement of the activity of p35-Cdk5, a human-derived recombinant […] active complex, which was expressed in insect cell and purified, was purchased from PanVera Corp. A synthetic peptide (Ala-Lys-Ala-Lys-Lys-Thr-Pro-Lys-Lys-Ala-Lys-Lys) was used as the substrate.
The reaction was performed by partially modifying the method of Kitagawa et al. [Oncogene, Vol. 7, 1067-1074 (1992)]. The volume of the reaction solution was 21.1 μL, and to the R buffer, purified cyclin p35-Cdk5, 0.01 mg/mL of the substrate peptide, 50 μM of non-labeled adenosine triphosphate (ATP), and 1 μCi of [γ-33P]-labeled ATP ([…]) were added to react at 30° C. for 10 minutes. Then, 10 μL of 350 mM phosphate buffer was added to the reaction system to terminate the reaction. The substrate peptide was adsorbed onto P81 paper filter on a 96-well plate, and then washed several times with 75 mM phosphate buffer. The radioactivity of the substrate peptide was measured with a liquid scintillation counter.
Addition of the compound according to the invention to the reaction system was carried out by first preparing a dilution series of solutions of the compound in dimethylsulfoxide (DMSO), and adding 1.1 μL of the dilutions. A control was provided by adding 1.1 μL of DMSO to the reaction system.
A representative compound of the compounds according to the invention was selected, and the IC50 value of this compound for the p35-Cdk5 activity was determined.

JURKAT = experiment: Inhibitory action against cell proliferation (WST-8), JURKAT; assay type: cell-based; settings: Homo sapiens, 72 h, Jurkat cells, 3 days culture, read-out: concentration for 50% inhibition of cell proliferation (IC50), Jurkat
Procedure: (§1) Clinically isolated cancer cell lines EOL-1, KU812 and JURKAT were cultured in RPMI1640 medium containing 10% fetal calf serum at 37° C. in the presence of 5% CO2 under an atmosphere of saturated steam.
(§2) The inhibitory action against cell proliferation was measured by modifying the method of Skehan et al. [J. Natl. Cancer Inst., Vo. 82, 1107-1112 (1990)] according to the method of Ishiyama et al. [Talanta, Vol. 44, 1299 (1997)]. 100 μL each of cell culture medium containing 1×10^3 live cells of EOL-1, KU812 and JURKAT, respectively, was dispensed into each well of a 96-well cell culture dish, and the cells were cultured overnight. On the next day, a dilution series of solutions in DMSO was prepared from a DMSO solution of the compound of each Example. Then, the dilution series of solutions or DMSO only as a control for no drug addition were separately added to the medium for cell culture. Finally, 100 μL each of the culture medium containing either the dilution series of solutions of the compounds or DMSO only, was added to the cells which had been cultured in a 96-well dish, and then the cells were further cultured for 3 days.
After adding 20 μL each of WST-8 (Kishida Chemical Co., Ltd.) to each well and culturing the cells for another 2 hours, the optical densities at 450 nm were measured against a reference wavelength of 650 nm, and were compared with the control group. The results obtained by determining the concentrations for 50% inhibition of cell proliferation (IC50 (nM)) of the compounds of Examples are presented in the following Table 4.

EOL-1 = experiment: Inhibitory action against cell proliferation (WST-8), EOL-1; assay type: cell-based; settings: Homo sapiens, EOL1, 72 h, EOL-1 cells, 3 days culture, read-out: concentration for 50% inhibition of cell proliferation (IC50), EOL-1
Procedure: as §1, §2
(§3) After adding 20 μL each of WST-8 (Kishida Chemical Co., Ltd.) to each well and culturing the cells for another 2 hours, the optical densities at 450 nm were measured against a reference wavelength of 650 nm, and were compared with the control group. […]

KU812 = experiment: Inhibitory action against cell proliferation (WST-8), KU812; assay type: cell-based; settings: Homo sapiens, 72 h, KU812 cells, 3 days culture, read-out: concentration for 50% inhibition of cell proliferation (IC50), KU812
Procedure: as §1, §2, §3

cyclin D2-Cdk4 = molecular target: T2, cyclin D2-Cdk4 (Homo sapiens, UniProt P11802); experiment: Cdk4 inhibitory action: cyclin D2-Cdk4 kinase activity, 33P-ATP, RB peptide substrate; assay type: biochemical; settings: for K1/K4, selectivity for Cdk4 against Cdk1: IC50 of Cdk1 divided by IC50 of Cdk4; for K2/K4, selectivity for Cdk4 against Cdk2: IC50 of Cdk2 divided by IC50 of Cdk4; for K5/K4, selectivity for Cdk4 against Cdk5: IC50 of Cdk5 divided by IC50 of Cdk4; for K7/K4, selectivity for Cdk4 against Cdk7: IC50 of Cdk7 divided by IC50 of Cdk4; for K9/K4, selectivity for Cdk4 against Cdk9: IC50 of Cdk9 divided by IC50 of Cdk4
T2 construct: made in house; host or cells: insect cell Sf9 (baculovirus)
T2 sequence (P11802 whole entry): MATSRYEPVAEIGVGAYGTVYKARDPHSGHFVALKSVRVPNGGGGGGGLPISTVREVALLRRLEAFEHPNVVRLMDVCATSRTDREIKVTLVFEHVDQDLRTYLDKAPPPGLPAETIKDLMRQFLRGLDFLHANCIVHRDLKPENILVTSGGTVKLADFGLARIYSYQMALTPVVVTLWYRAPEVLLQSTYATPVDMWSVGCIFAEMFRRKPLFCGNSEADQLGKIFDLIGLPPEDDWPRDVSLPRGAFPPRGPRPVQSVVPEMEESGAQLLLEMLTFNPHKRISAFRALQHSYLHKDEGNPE
T2 sequence (P30279 whole entry partner): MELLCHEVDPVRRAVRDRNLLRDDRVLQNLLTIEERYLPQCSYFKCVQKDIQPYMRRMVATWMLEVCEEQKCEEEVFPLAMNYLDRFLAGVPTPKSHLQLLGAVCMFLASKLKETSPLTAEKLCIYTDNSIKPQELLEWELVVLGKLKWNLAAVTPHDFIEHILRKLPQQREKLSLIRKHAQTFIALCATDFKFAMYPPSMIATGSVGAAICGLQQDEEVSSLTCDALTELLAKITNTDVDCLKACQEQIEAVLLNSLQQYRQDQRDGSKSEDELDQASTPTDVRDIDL

T1 sequence (Q00535 whole entry): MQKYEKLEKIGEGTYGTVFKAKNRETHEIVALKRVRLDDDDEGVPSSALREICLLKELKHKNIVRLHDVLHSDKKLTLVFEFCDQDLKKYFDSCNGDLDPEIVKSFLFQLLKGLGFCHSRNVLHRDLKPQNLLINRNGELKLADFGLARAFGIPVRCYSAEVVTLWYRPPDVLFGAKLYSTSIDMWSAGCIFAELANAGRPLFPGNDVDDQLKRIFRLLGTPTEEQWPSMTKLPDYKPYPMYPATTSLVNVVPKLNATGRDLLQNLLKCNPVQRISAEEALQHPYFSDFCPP
T1 sequence (Q15078 whole entry partner): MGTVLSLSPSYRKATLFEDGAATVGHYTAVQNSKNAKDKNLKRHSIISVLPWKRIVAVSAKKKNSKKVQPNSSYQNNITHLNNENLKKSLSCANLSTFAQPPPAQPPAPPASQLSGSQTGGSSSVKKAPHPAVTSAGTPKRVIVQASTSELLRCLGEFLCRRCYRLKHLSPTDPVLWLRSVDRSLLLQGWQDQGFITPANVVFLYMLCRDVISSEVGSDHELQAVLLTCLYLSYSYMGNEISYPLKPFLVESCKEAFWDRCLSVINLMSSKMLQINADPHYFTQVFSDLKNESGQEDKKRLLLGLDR

| Structure (SMILES) | IC50 (p35-Cdk5) [nM] | IC50 (JURKAT) [nM] | K1/K4, selectivity for Cdk4 against Cdk1 (cyclin D2-Cdk4) | K2/K4, selectivity for Cdk4 against Cdk2 (cyclin D2-Cdk4) | K5/K4, selectivity for Cdk4 against Cdk5 (cyclin D2-Cdk4) | K7/K4, selectivity for Cdk4 against Cdk7 (cyclin D2-Cdk4) | K9/K4, selectivity for Cdk4 against Cdk9 (cyclin D2-Cdk4) | IC50 (EOL-1) [nM] | IC50 (KU812) [nM] |
| --- | --- | --- | --- | --- | --- | --- | --- | --- | --- |
| Cc1cc(-c2cnc(Nc3cnc(CN4CCN(C)CC4)cn3)s2)nc(OC2CCCCC2)n1 [Example 1, 5-[2-(cyclohexyloxy)-6-methyl-4-pyrimidinyl]-2-[5-(4-methyl-1-piperazinyl)methyl-2-pyrazinyl]amino-1,3-thiazole] |  | 230 | 65 | 185 | 326 | 58 | 272 | 54 | 150 |
| Cc1cc(-c2cnc(Nc3cnc(CN4CCN(C)CC4)cn3)s2)nc(Sc2ccccc2Cl)n1 [Example 109, 5-[2-(2-chlorophenylthio)-6-methyl-4-pyrimidinyl]-2-[5-(4-methyl-1-piperazinyl)methyl-2-pyrazinyl]amino-1,3-thiazole] |  | 110 |  |  |  |  |  |  |  |
| CC(=O)N1CCN(Cc2ccc(Nc3ncc(-c4cc(C)nc(OC5CCCCC5)n4)s3)nc2)CC1 [Example 125, 5-[2-(cyclohexyloxy)-6-methyl-4-pyrimidinyl]-2-[5-(4-acetyl-1-piperazinyl)methyl-2-pyridyl]amino-1,3-thiazole] |  | 260 |  |  |  |  |  | 5.6 | 180 |
| Cc1cc(-c2cnc(Nc3cnc(CN4CCCC4)cn3)s2)nc(SC2CCCCC2)n1 [Example 93, 5-[2-(cyclohexylthio)-6-methyl-4-pyrimidinyl]-2-[5-(1-pyrrolidinyl)methyl-2-pyrazinyl]amino-1,3-thiazole] | 2900 |  |  |  |  |  |  |  |  |
| Cc1cc(-c2cnc(Nc3cnc(CN4CCC(N(C)C)C4)cn3)s2)nc(SC2CCCCC2)n1 (stereo not drawn) [Example 94, 5-[2-(cyclohexylthio)-6-methyl-4-pyrimidinyl]-2-[5-(3-dimethylamino-1-pyrrolidinyl)methyl-2-pyrazinyl]amino-1,3-thiazole] |  | 180 |  |  |  |  |  |  |  |

More lines, in order of falling IC50 (JURKAT), values ahead:

| IC50 (p35-Cdk5) [nM] | IC50 (JURKAT) [nM] | K1/K4, selectivity for Cdk4 against Cdk1 (cyclin D2-Cdk4) | K2/K4, selectivity for Cdk4 against Cdk2 (cyclin D2-Cdk4) | K5/K4, selectivity for Cdk4 against Cdk5 (cyclin D2-Cdk4) | K7/K4, selectivity for Cdk4 against Cdk7 (cyclin D2-Cdk4) | K9/K4, selectivity for Cdk4 against Cdk9 (cyclin D2-Cdk4) | Structure (SMILES) | IC50 (EOL-1) [nM] | IC50 (KU812) [nM] |
| --- | --- | --- | --- | --- | --- | --- | --- | --- | --- |
|  | 250 | 167 | 625 | 417 | 167 | 153 | Cc1cc(-c2cnc(Nc3ccc(CN4CCC[C@H]4CO)cn3)s2)nc(NC2CCCCC2)n1 [Example 137, (2S)-5-[2-(cyclohexylamino)-6-methyl-4-pyrimidinyl]-2-[5-(2-hydroxymethyl-1-pyrrolidinyl)methyl-2-pyridyl]amino-1,3-thiazole] |  |  |
| 2400 | 190 |  |  |  |  |  | Cc1cc(-c2cnc(Nc3cnc(CNCCO)cn3)s2)nc(SC2CCCCC2)n1 [Example 99, 5-[2-(cyclohexylthio)-6-methyl-4-pyrimidinyl]-2-[5-(2-hydroxyethylamino)methyl-2-pyrazinyl]amino-1,3-thiazole] |  |  |
| 2600 | 170 | 103 | 142 | 433 | 62 | 72 | Cc1cc(-c2cnc(Nc3cnc(CN4CCC(N(C)C)C4)cn3)s2)nc(OC2CCCCC2)n1 (stereo not drawn) [Example 13, 5-[2-(cyclohexyloxy)-6-methyl-4-pyrimidinyl]-2-[5-(3-dimethylamino-1-pyrrolidinyl)methyl-2-pyrazinyl]amino-1,3-thiazole] |  |  |
|  | 140 |  |  |  |  |  | Cc1cc(-c2cnc(Nc3cnc(CNC(C)C)cn3)s2)nc(SC2CCCCC2)n1 [Example 96, 5-[2-(cyclohexylthio)-6-methyl-4-pyrimidinyl]-2-[5-(isopropylamino)methyl-2-pyrazinyl]amino-1,3-thiazole] |  |  |
